{
  "source": "paper PMC12036814",
  "about": "(Angewandte Chemie (International Ed. in English), 2025)",
  "key": {"[1]": {"tested_on": "HEK‐293 and PDL‐hTERT cells", "experiment": "MTT assay, relative metabolic activity after 3 days", "assay_type": "cell-based, human", "settings": "3 days of treatment", "protocol": "Methods and Experimental Procedures\n(Alfa Aesar, Haverhill, USA, Cat# J66943 ) stocks were prepared in sterile -filtered 0.1 N HCl to a\nmaximum concentration of 50 mM. HCl was used as vehicle control, diluted in culture medium, and\nCell culture experiments were performed in HEK 293, A549 or PDL-hTERT cells1 cultured in DMEM high\nglucose medium supplemented with 10% FCS and 2 mM glutamine ( all, Sigma-Aldrich, St. Louis, USA,\nCat# G7513) in 5% CO2 atmosphere at 37 °C in Heracell 150i incubators (Thermo Fisher Scientific,\nWaltham, USA). The human periodontal ligament (PDL -hTERT) cell line was provided by Prof. Denitsa\nDocheva. During standard cell passaging accutase (Sigma-Aldrich) or 2,5x trypsin/0.5% EDTA in PBS\n(Capricorn Scientific, Ebsdorfergrund, Germany) was used for cell detachment. Cell dishes in various\nsizes (10 cm, 15 cm) and flasks (T75, T175) were used for cultivation (Sarstedt, Nümbrecht, Germany,\npurchased from Thermo Fisher Scientific, Waltham, USA, Cat# 130184, 130188.\nHEK or PDL-hTERT cells (1,5 x 10^3 cells/well) were seeded into 96 -well plates and grown for 24 h. […]\nremoved by suction and the formed formazan crystals dissolved in 200 μL DMSO. The read-out was\nperformed with an Infinite M200 Pro microplate reader (Tecan, Männedorf, Switzerland) at 570 nm\nand background was subtracted at 630 nm. The absorbance values were normalized to DMSO/0.1 N […]"}, "[2]": {"molecular_target": "T1, SCARB1 (Homo sapiens, UniProt Q8WTV0)", "T1 construct": "purchased Hölzel Biotech SC1-H82E5", "T1 sequence (Q8WTV0 1-552)": "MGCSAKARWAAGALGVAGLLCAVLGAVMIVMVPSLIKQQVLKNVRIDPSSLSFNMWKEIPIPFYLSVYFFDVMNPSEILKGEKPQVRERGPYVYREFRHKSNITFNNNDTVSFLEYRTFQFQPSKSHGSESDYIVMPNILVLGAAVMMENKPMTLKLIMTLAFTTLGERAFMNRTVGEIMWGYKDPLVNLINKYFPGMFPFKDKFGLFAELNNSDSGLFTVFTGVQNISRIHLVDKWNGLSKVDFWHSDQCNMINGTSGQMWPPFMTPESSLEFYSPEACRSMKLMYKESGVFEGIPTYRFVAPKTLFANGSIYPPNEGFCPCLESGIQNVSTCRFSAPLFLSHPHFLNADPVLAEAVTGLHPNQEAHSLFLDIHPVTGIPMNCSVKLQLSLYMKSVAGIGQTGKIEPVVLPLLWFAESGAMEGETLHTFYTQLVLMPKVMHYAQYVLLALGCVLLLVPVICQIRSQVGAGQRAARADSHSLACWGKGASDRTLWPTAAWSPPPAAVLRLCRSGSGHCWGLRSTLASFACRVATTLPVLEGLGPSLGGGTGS", "experiment": "Microscale thermophoresis (MST) binding", "settings": "aggregation/precipitation at high compound concentrations", "protocol": "reaction was terminated by addition of 800 μL EtOAc+0.5% AcOH, 300 μL H2O and 100 μL internal standard (13,14-dihydro-15-ketoprostaglandin -d4, 300 pmol/sample, Cayman Chemical, Ann Arbor, USA, Cat# 10010606). Of the organic phase 600 μL was transferred into a fresh Eppendorf tube and the solvent removed in a SpeedVac. The residue was dissolved in 100 μL acetonitrile/ H2O (1:1) and measured with LC-MS/MS. Gradient: Solvent A = H2O + 0.1% formic acid, solvent B = acetonitrile + 0.5% formic acid, flow rate = 0 .4 mL/min, run length 6 min, gradient = 0 min 30% B, 1 min 30% B, 2 min 31.5% B, 2.1 min 95% B, 4 min 95% B, 4.1 min 30% B, 6 min 30% B. MS settings: Capillary = 3.0 kV, sampling cone = […], extraction cone […], source temperature = 100 °C, desolvat ion temperature = 350 °C, cone gas flow = 50.0 L/h, desolvation gas flow = 650.0 L/h, scan time = 0.250 s, inter-scan time = 0.020 s, mass range = 100 -800 Da. Masses of 15 -ketoprostaglandin (349.2 Da, collision energy = 21.0 eV), 13,14 -dihydro-15-ketoprostaglandin (351.2 Da, collision energy = 18.0 eV) and 13,14-dihydro-15-ketoprostaglandin (355.2 Da, collision energy = 10.0 eV) were set for MRM. The areas under the curve (AUC) were used to quantify 15 -keto-PGE2 and 13,14 -dihydro-15-keto-PGE2 levels by determining peak areas in relation to internal standard […]. The experiment was […]\nMicroscale thermophoresis (MST) was performed as follows: Monolith His -Tag Labeling Kit RED -tris-NTA 2nd Generation (NanoTemper Technologies, Munich, Germany, Cat# MO -L018) was used for KD determination as recommended by the purchaser. Briefly, SCARB1 ( Hölzel Biotech, Cologne, Germany, Cat# SC1-H82E5) concentration (50 nM) was adjusted in assay buffer and labelled by the RED -tris-NTA dye (100 nM). This mixture was added to compound dilution series (c = 1 mM to 30 nM) and measured using Monolith NT.115 (NanoTemper Technologies, Munich, Germany ). The experiment was performed once and analysed with the MO Affinity Analysis software (NanoTemper).\nNUDT1 target validation efforts:\nRecombinant NUDT1 expression & purification […]"}},
  "data": [
    {"smiles": "O=C(O)c1cn(C2CC2)c2cc(N3CCNCC3)c(F)cc2c1=O", "note": "[Ciprofloxacin]", "values": [
      {"measurement": "approximate apparent IC50 (metabolic activity, MTT)", "setting": "[1]", "value": "well above the reported plasma concentrations"},
      {"measurement": "binding to SCARB1", "setting": "[2]", "value": "no binding affinity could be determined"}
    ]}
  ]
}
